Experiments:
DIGSA [1] = test: Post-emergence herbicidal action against DIGSA; assay type: in vivo, Digitaria sanguinalis
Method in brief: (§1)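 Percent herbicidal action is rated by eye about 3 weeks after treatment against untreated controls, where 100% means dead plants and 0% means like controls. Plants in sandy loam are sprayed on green parts at the one-leaf stage with aqueous WP or EC preparations at 600 to 800 l/ha plus 0.2% wetting agent.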

SETVI [2] = test: Pre-emergence herbicidal action against SETVI; assay type: in vivo, Setaria viridis
Method in brief: (§2)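 Seeds sown in sandy loam, soil-covered; compound sprayed on soil surface pre-emergence. Application: WP/EC, 600–800 l/ha, 0.2% wetting agent. Readout: visual % damage at 3 weeks.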

ECHCG [3] = test: Pre-emergence herbicidal action against ECHCG; assay type: in vivo, Echinochloa crus-galli; conditions: 80 g/ha
Method in brief: as §2

VIOTR [4] = test: Pre-emergence herbicidal action against VIOTR; assay type: in vivo, Viola tricolor
Method in brief: as §2

VIOTR [5] = test: Post-emergence herbicidal action against VIOTR; assay type: in vivo, Viola tricolor; conditions: Viola tricolor, 504 h
Method in brief: as §1

ALOMY [6] = test: Post-emergence herbicidal action against ALOMY; assay type: in vivo, Alopecurus myosuroides; conditions: dosage 20 g/ha, visual assessment about 3 weeks after treatment vs untreated controls
Method in brief: as §1

AMARE [7] = test: Post-emergence herbicidal action against AMARE; assay type: in vivo, Amaranthus retroflexus; conditions: 20 g/ha, visual assessment about 3 weeks after treatment, 100% = plants have died, 0% = like control plants
Method in brief: as §1

POLCO = test: Pre-emergence herbicidal action against POLCO; assay type: in vivo, Polygonum convolvulus; conditions: Fallopia convolvulus, 504 h
Method in brief: as §2

MATIN [8] = test: Post-emergence herbicidal action against MATIN; assay type: in vivo, Matricaria inodora
Method in brief: as §1

ABUTH [9] = test: Post-emergence herbicidal action against ABUTH; assay type: in vivo, Abutilon theophrasti; conditions: visual assessment about 3 weeks after treatment vs untreated controls
Method in brief: as §1

AVEFA [10] = test: Pre-emergence herbicidal action against AVEFA; assay type: in vivo, Avena fatua; conditions: pre-emergence
Method in brief: as §2

ALOMY [11] = test: Pre-emergence herbicidal action against ALOMY; assay type: in vivo, Alopecurus myosuroides; conditions: pre-emergence
Method in brief: as §2

DIGSA [12] = test: Pre-emergence herbicidal action against DIGSA; assay type: in vivo, Digitaria sanguinalis
Method in brief: as §2

MATIN [13] = test: Pre-emergence herbicidal action against MATIN; assay type: in vivo, Matricaria inodora
Method in brief: as §2

PHBPU [14] = test: Post-emergence herbicidal action against PHBPU; assay type: in vivo, Pharbitis purpurea; conditions: Ipomoea purpurea, 504 h
Method in brief: as §1

ABUTH [15] = test: Pre-emergence herbicidal action against ABUTH; assay type: in vivo, Abutilon theophrasti
Method in brief: as §2

SETVI [16] = test: Post-emergence herbicidal action against SETVI; assay type: in vivo, Setaria viridis
Method in brief: as §1

VERPE [17] = test: Post-emergence herbicidal action against VERPE; assay type: in vivo, Veronica persica; conditions: Veronica persica, 504 h, 20 g/ha
Method in brief: as §1

STEME [18] = test: Post-emergence herbicidal action against STEME; assay type: in vivo, Stellaria media
Method in brief: as §1

AMARE [19] = test: Pre-emergence herbicidal action against AMARE; assay type: in vivo, Amaranthus retroflexus
Method in brief: as §2

HORMU = test: Pre-emergence herbicidal action against HORMU; assay type: in vivo, Hordeum murinum; conditions: 80 g/ha, pre-emergence
Description: Seeds of monocotyledonous and dicotyledonous weed plants and crop plants are laid out in sandy loam soil in wood-fiber pots and covered with soil. The compounds of the invention, formulated in the form of wettable powders (WP) or as emulsion concentrates (EC), are then applied to the surface of the covering soil in the form of an aqueous suspension or emulsion at a water application rate equivalent to 600 to 800 l/ha, with addition of 0.2% wetting agent. After the treatment, the pots are placed in a greenhouse and kept under good growth conditions for the trial plants. The damage to the test plants is scored visually after a test period of 3 weeks by comparison with untreated controls (herbicidal activity in percent (%): 100% activity=the plants have died, 0% activity=like control plants). […] The tables below illustrate, in an illustrative manner, the post-emergence herbicidal action of the compounds of the invention, the herbicidal activity being stated in percent.

AVEFA [20] = test: Post-emergence herbicidal action against AVEFA; assay type: in vivo, Avena fatua; conditions: Avena fatua, 504 h, 20 g/ha, visual assessment about 3 weeks after treatment, 100% = plants have died, 0% = like control plants
Method in brief: as §1

STEME [21] = test: Pre-emergence herbicidal action against STEME; assay type: in vivo, Stellaria media
Method in brief: as §2

PHBPU [22] = test: Pre-emergence herbicidal action against PHBPU; assay type: in vivo, Pharbitis purpurea; conditions: dosage 80 g/ha
Method in brief: as §2

ECHCG [23] = test: Post-emergence herbicidal action against ECHCG; assay type: in vivo, Echinochloa crus-galli
Method in brief: as §1

VERPE [24] = test: Pre-emergence herbicidal action against VERPE; assay type: in vivo, Veronica persica; conditions: dosage 80 g/ha
Method in brief: as §2

LOLRI = test: Pre-emergence herbicidal action against LOLRI; assay type: in vivo, Lolium rigidum; conditions: 80 g/ha
Method in brief: as §2

[25] = Setaria viridis, 504 h, dosage 20 g/ha
[26] = Tripleurospermum inodorum, 504 h, dosage 20 g/ha
[27] = 80 g/ha, scored visually after 3 weeks vs untreated controls (100% = plants have died, 0% = like control plants)

CCNC(=O)c1c(C(F)(F)F)ccc(C(=O)Nc2nnnn2C)c1Br [Example 1-208]
pest or weed control at 5 g/ha (DIGSA [1]; Digitaria sanguinalis, 504 h, 5 g/ha): 80%
pest or weed control at 20 g/ha (DIGSA [1]; Digitaria sanguinalis, 504 h, 20 g/ha): 90%
pest or weed control at 20 g/ha (SETVI [2]; [25]): 100%
pest or weed control at 80 g/ha (SETVI [2]; Setaria viridis, 504 h, dosage 80 g/ha): 100%
pest or weed control at 80 g/ha (ECHCG [3]; Echinochloa crus-galli, 504 h): 100%
pest or weed control at 20 g/ha (VIOTR [4]; Viola tricolor, 504 h, dosage 20 g/ha): 100%
pest or weed control at 80 g/ha (VIOTR [4]; Viola tricolor, 504 h, dosage 80 g/ha): 100%
pest or weed control at 5 g/ha (VIOTR [5]; 5 g/ha): 80%
pest or weed control at 20 g/ha (VIOTR [5]; 20 g/ha): 100%
pest or weed control at 20 g/ha (ALOMY [6]; Alopecurus myosuroides, 504 h): 80%
pest or weed control at 20 g/ha (AMARE [7]; Amaranthus retroflexus, 504 h): 100%
pest or weed control at 20 g/ha (POLCO; dosage 20 g/ha): 80%
pest or weed control at 80 g/ha (POLCO; dosage 80 g/ha): 90%
pest or weed control at 20 g/ha (MATIN [8]; [26]): 80%
pest or weed control at 5 g/ha (ABUTH [9]; Abutilon theophrasti, 504 h, dosage 5 g/ha): 80%
pest or weed control at 20 g/ha (ABUTH [9]; Abutilon theophrasti, 504 h, dosage 20 g/ha): 90%
pest or weed control at 80 g/ha (AVEFA [10]; Avena fatua, 504 h, 80 g/ha): 100%
pest or weed control at 20 g/ha (AVEFA [10]; Avena fatua, 504 h, 20 g/ha, scored visually after 3 weeks, 100% = plants have died, 0% = like control plants): 80%
pest or weed control at 80 g/ha (ALOMY [11]; Alopecurus myosuroides, 504 h, 80 g/ha, scored visually after 3 weeks vs untreated controls (100% = plants have died, 0% = like control plants)): 100%
pest or weed control at 20 g/ha (ALOMY [11]; Alopecurus myosuroides, 504 h, 20 g/ha, scored visually after 3 weeks, 100% = plants have died, 0% = like control plants): 80%
pest or weed control at 20 g/ha (DIGSA [12]; Digitaria sanguinalis, 504 h, dosage 20 g/ha): 100%
pest or weed control at 80 g/ha (DIGSA [12]; Digitaria sanguinalis, 504 h, dosage 80 g/ha): 100%
pest or weed control at 20 g/ha (MATIN [13]; [26]): 90%
pest or weed control at 80 g/ha (MATIN [13]; Tripleurospermum inodorum, 504 h, dosage 80 g/ha): 100%
pest or weed control at 5 g/ha (PHBPU [14]; dosage 5 g/ha): 80%
pest or weed control at 20 g/ha (PHBPU [14]; dosage 20 g/ha): 90%
pest or weed control at 80 g/ha (ABUTH [15]; Abutilon theophrasti, 504 h, 80 g/ha, scored visually after 3 weeks vs untreated controls (100% = plants have died, 0% = like control plants)): 100%
pest or weed control at 20 g/ha (ABUTH [15]; Abutilon theophrasti, 504 h, dosage 20 g/ha, scored visually after 3 weeks vs untreated controls, 100% = plants have died, 0% = like control plants, read-out: Pre-emergence action against ABUTH (herbicidal activity in percent)): 100%
pest or weed control at 5 g/ha (SETVI [16]; Setaria viridis, 504 h, dosage 5 g/ha): 80%
pest or weed control at 20 g/ha (SETVI [16]; [25]): 80%
pest or weed control at 20 g/ha (VERPE [17]): 80%
pest or weed control at 20 g/ha (STEME [18]; Stellaria media, 504 h, 20 g/ha): 90%
pest or weed control at 5 g/ha (STEME [18]; Stellaria media, 504 h, dosage 5 g/ha): 90%
pest or weed control at 20 g/ha (AMARE [19]; Amaranthus retroflexus, 504 h, 20 g/ha, scored visually after 3 weeks vs untreated controls, 100% = plants have died, 0% = like control plants): 100%
pest or weed control at 80 g/ha (AMARE [19]; Amaranthus retroflexus, 504 h, 80 g/ha, scored visually after 3 weeks vs untreated controls, 100% = plants have died, 0% = like control plants): 100%
pest or weed control at 80 g/ha (HORMU; Hordeum murinum, 504 h): 80%
pest or weed control at 20 g/ha (AVEFA [20]): 90%
pest or weed control at 20 g/ha (STEME [21]; Stellaria media, 504 h, dosage 20 g/ha): 100%
pest or weed control at 80 g/ha (STEME [21]; Stellaria media, 504 h, dosage 80 g/ha): 100%

CCc1c(C(=O)Nc2nnnn2CC)ccc(C(F)(F)F)c1C(=O)NC1CC1 [Example 2-273]
Post-emergence action against DIGSA in % (DIGSA [1]; 5 g/ha): 80%
Post-emergence action against DIGSA (DIGSA [1]; 20 g/ha): 90%
Pre-emergence action against SETVI in % (SETVI [2]; dosage 20 g/ha): 80%
Pre-emergence action against SETVI in % (SETVI [2]; dosage 80 g/ha): 90%
Pre-emergence action against ECHCG in % (ECHCG [3]): 90%
Pre-emergence action against VIOTR in % (VIOTR [4]; dosage 20 g/ha): 90%
Pre-emergence action against VIOTR in % (VIOTR [4]; dosage 80 g/ha): 100%
Post-emergence action against ALOMY in % (ALOMY [6]): 80%
Pre-emergence action against PHBPU in % (PHBPU [22]): 90%
Post-emergence action at 20 g/ha against AMARE in % (AMARE [7]): 90%
Post-emergence action against MATIN in % (MATIN [8]; dosage 5 g/ha): 80%
Post-emergence action against MATIN in % (MATIN [8]; dosage 20 g/ha): 90%
Post-emergence action against ABUTH in % (ABUTH [9]; dosage 5 g/ha): 90%
Post-emergence action against ABUTH in % (ABUTH [9]; dosage 20 g/ha): 90%
Pre-emergence action against AVEFA in % (AVEFA [10]; 80 g/ha): 90%
Pre-emergence action against ALOMY (herbicidal activity) (ALOMY [11]; [27]): 90%
Pre-emergence action against DIGSA in % (DIGSA [12]; dosage 20 g/ha): 100%
Pre-emergence action against DIGSA in % (DIGSA [12]; dosage 80 g/ha): 100%
Pre-emergence action against MATIN in % (MATIN [13]; dosage 20 g/ha): 100%
Pre-emergence action against MATIN in % (MATIN [13]; dosage 80 g/ha): 100%
Pre-emergence action against ABUTH (herbicidal activity) (ABUTH [15]; [27]): 90%
Pre-emergence action against ABUTH (herbicidal activity in percent) (ABUTH [15]; dosage 20 g/ha, scored visually after 3 weeks vs untreated controls, 100% = plants have died, 0% = like control plants): 90%
Post-emergence action against ECHCG in % (ECHCG [23]; dosage 5 g/ha): 80%
Post-emergence action against ECHCG in % (ECHCG [23]; dosage 20 g/ha): 90%
Post-emergence action against SETVI in % (SETVI [16]; dosage 5 g/ha): 80%
Post-emergence action against SETVI in % (SETVI [16]; dosage 20 g/ha): 90%
Post-emergence action against STEME in % (STEME [18]; 20 g/ha): 90%
Post-emergence action against STEME in % (STEME [18]; dosage 5 g/ha): 80%
Pre-emergence action against AMARE in % (AMARE [19]; 20 g/ha, scored visually after 3 weeks vs untreated controls, 100% = plants have died, 0% = like control plants): 90%
Pre-emergence action against AMARE in % (AMARE [19]; [27]): 100%
Pre-emergence action against HORMU in % (HORMU): 80%
Pre-emergence action against VERPE in % (VERPE [24]): 100%
Pre-emergence action against LOLRI in % (LOLRI): 80%
Pre-emergence action against STEME in % (STEME [21]; dosage 20 g/ha): 90%
Pre-emergence action against STEME in % (STEME [21]; dosage 80 g/ha): 90%

Source: patent publication US12655116B2, “Substituted isophthalic acid diamides” (Bayer Aktiengesellschaft, priority 2020, dated 2026)
